Measured values taken from ChEMBL document CHEMBL1275562, “Incidence and characteristics of vancomycin nonsusceptible strains of methicillin-resistant Staphylococcus aureus at Hershey Medical Center” (2008).
In brackets after ≈: the same amount, converted by molar mass.

Assays:
Assay type in all cases: functional
Staphylococcus aureus [1] = assay: Antimicrobial activity against vancomycin-susceptible Staphylococcus aureus SA2089 after 48 hrs by macro Etest method; settings: SA2089, 48 h
Staphylococcus aureus [2] = assay: Antimicrobial activity against heterogeneous vancomycin-intermediate Staphylococcus aureus SA873 after 48 hrs by macro Etest method; settings: SA873, 48 h
Staphylococcus aureus [3] = assay: Antimicrobial activity against heterogeneous vancomycin-intermediate Staphylococcus aureus SA618 after 48 hrs by macro Etest method; settings: SA618, 48 h
Staphylococcus aureus [4] = assay: Antimicrobial activity against vancomycin-susceptible Staphylococcus aureus SA662 after 48 hrs by macro Etest method; settings: SA662, 48 h
Staphylococcus aureus [5] = assay: Antimicrobial activity against vancomycin-intermediate Staphylococcus aureus SA1984 after 48 hrs by macro Etest method; settings: SA1984, 48 h
Staphylococcus aureus [6] = assay: Antimicrobial activity against vancomycin-intermediate Staphylococcus aureus SA1287 after 48 hrs by macro Etest method; settings: SA1287, 48 h
Staphylococcus aureus [7] = assay: Antimicrobial activity against vancomycin-intermediate Staphylococcus aureus SA770 after 48 hrs by macro Etest method; settings: SA770, 48 h

Q: Which results are given for `CC(=O)N[C@@H]1[C@H](Oc2c3cc4cc2Oc2ccc(cc2Cl)[C@@H](O[C@@H]2O[C@@H](CO)[C@@H](O)[C@H](O)[C@@H]2NC(C)=O)[C@@H]2NC(=O)[C@H](NC(=O)[C@@H]4NC(=O)[C@H]4NC(=O)[C@@H](Cc5ccc(c(Cl)c5)O3)NC(=O)[C@H](N)c3ccc(O)c(c3)Oc3cc(O)cc4c3)c3ccc(O)c(c3)-c3c(O[C@H]4O[C@H](CO)[C@@H](O)[C@@H](O)[C@@H]4O)cc(O)cc3[C@@H](C(=O)O)NC2=O)O[C@@H](CO)[C@@H](O)[C@@H]1O`?
A: MIC (Staphylococcus aureus [1]): 12 µg/mL (≈ 6.79 µM); MIC (Staphylococcus aureus [2]): 12 µg/mL (≈ 6.79 µM); MIC (Staphylococcus aureus [3]): 24 µg/mL (≈ 13.6 µM); MIC (Staphylococcus aureus [4]): 12 µg/mL (≈ 6.79 µM); MIC (Staphylococcus aureus [5]): 8 µg/mL (≈ 4.53 µM); MIC (Staphylococcus aureus [6]): 8 µg/mL (≈ 4.53 µM); MIC (Staphylococcus aureus [7]): 24 µg/mL (≈ 13.6 µM)

Q: Which MIC (Staphylococcus aureus [1]) does the source give for `CN[C@H](CC(C)C)C(=O)N[C@H]1C(=O)N[C@@H](CC(N)=O)C(=O)N[C@H]2C(=O)N[C@H]3C(=O)N[C@H](C(=O)N[C@H](C(=O)O)c4cc(O)cc(O)c4-c4cc3ccc4O)[C@H](O)c3ccc(c(Cl)c3)Oc3cc2cc(c3O[C@@H]2O[C@H](CO)[C@@H](O)[C@H](O)[C@H]2O[C@H]2C[C@](C)(N)[C@H](O)[C@H](C)O2)Oc2ccc(cc2Cl)[C@H]1O` [VANCOMYCIN] here?
A: 3 µg/mL (≈ 2.07 µM)

Q: And the MIC (Staphylococcus aureus [2])?
A: 3 µg/mL (≈ 2.07 µM)

Q: What about the MIC (Staphylococcus aureus [3]) of the same molecule?
A: 3 µg/mL (≈ 2.07 µM)

Q: And the MIC (Staphylococcus aureus [5])?
A: 6 µg/mL (≈ 4.14 µM)

Q: What about the MIC (Staphylococcus aureus [7]) of the same molecule?
A: 6 µg/mL (≈ 4.14 µM)
